Results: patent US20220184040A1, “METHOD OF TREATING MALIGNANT RHABDOID TUMOR OF THE OVARY AND SMALL CELL CANCER OF THE OVARY OF THE HYPERCALCEMIC TYPE” (TRANSLATIONAL DRUG DEVELOPMENT, LLC, priority 2019, published 2022)
“Also recorded” adds a separate entry of the source. Where two headings read alike, the source gives them in different places.

Tests used:
HDAC2 = HDAC2 (Homo sapiens, UniProt Q92769); experiment: HDAC isoform inhibition, HDAC2; type: biochemical
Source text: (§1) In contrast to pan-HDAC inhibition, isoform restricted HDAC inhibition revokes immune privilege. HDAC3 has emerged as a key target to enhance immune function: • Decrease in Treg suppressive function • Increase in Natural Killer Cell ligand expression on tumors • Enhance macrophage host defense activity • Upregulation of PD-L1 expression and increased sensitivity to anti-PD1 treatments HDAC6 inhibition has potent immunomodulatory benefits including: • Decrease in expression of the anti-inflammatory cytokine IL-10 • Enhanced expression of MHC class I/II genes and increased expression of known tumor antigens • Decreased immunosuppression and enhanced immune function of melanoma patient T-cells

HDAC4 = HDAC4 (Homo sapiens, UniProt P56524); experiment: HDAC isoform inhibition, HDAC4; type: biochemical
Sequence of HDAC4 (P56524 whole entry, canonical isoform): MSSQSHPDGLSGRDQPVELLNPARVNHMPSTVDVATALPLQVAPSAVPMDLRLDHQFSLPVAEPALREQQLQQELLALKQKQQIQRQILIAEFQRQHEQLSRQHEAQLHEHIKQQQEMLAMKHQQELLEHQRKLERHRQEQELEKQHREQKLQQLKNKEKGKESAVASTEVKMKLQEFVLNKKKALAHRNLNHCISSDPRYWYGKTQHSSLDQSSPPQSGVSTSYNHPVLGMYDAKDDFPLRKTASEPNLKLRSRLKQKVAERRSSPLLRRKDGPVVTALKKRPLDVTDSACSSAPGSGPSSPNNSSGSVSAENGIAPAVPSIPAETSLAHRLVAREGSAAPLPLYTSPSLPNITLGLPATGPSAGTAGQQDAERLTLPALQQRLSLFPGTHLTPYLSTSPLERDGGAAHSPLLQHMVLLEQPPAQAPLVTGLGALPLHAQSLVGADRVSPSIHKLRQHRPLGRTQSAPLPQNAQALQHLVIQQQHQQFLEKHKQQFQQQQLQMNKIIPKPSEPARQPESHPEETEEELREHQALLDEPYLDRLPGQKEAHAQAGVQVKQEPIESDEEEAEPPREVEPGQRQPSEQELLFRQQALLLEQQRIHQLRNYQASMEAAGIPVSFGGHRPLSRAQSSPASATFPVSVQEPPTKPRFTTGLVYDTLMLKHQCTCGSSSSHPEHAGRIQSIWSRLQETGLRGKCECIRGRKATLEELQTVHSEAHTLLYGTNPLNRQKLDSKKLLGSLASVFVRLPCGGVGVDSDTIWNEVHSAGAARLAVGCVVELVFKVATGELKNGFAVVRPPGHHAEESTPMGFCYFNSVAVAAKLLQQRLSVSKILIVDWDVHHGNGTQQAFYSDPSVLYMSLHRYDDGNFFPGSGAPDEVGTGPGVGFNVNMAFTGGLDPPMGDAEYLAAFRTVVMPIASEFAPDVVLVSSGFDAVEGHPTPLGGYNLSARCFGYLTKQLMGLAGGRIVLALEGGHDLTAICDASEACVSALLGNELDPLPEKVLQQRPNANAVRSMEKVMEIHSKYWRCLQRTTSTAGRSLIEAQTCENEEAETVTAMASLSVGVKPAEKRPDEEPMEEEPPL
Source text: as §1

G402 = experiment: CellTiter-Glo cell viability assay, G402; type: cell-based; settings: Homo sapiens, G-402, read-out: anti-proliferative IC50
Experimental: (§2) Cell viability was measured by the CellTiter -GlO® cell viability assay from Promega (Madison, Wis.). The CellTiter-GlO® Luminescent Cell Viability Assay is a homogeneous method to determine the number of viable cells in culture based on quantitation of the ATP present, which signals the presence of metabolically active cells. Following treatment, CellTiter-GlO® is added to treatment wells and incubated at 37° C. luminescence values were measured at using a Molecular Devices Spectramax microplate reader
(§3) Cells were grown to 70% confluency, trypsinized, counted, and seeded in 96 well flat-bottom plates at a final concentration of 2.5×10^3-5×10^3 cells/well (Day 0). Cells were allowed to incubate in growth media for 24 hours. Treatment with the test agents or standard agents began on Day 1 and continued for 72 hours. At the 72-hour timepoint, treatment containing media was removed. Viable cell numbers are quantified by the CellTiter-GlO® cell viability assay as described above. […]
(§4) For single agent and combination studies, data from each experiment was collected and expressed as % Cell Growth using the following calculation: […]
(§5) Where ftest is the fluorescence of the tested sample, and fvehicle is the fluorescence of the vehicle in which the drug is dissolved. […]

G401 = experiment: CellTiter-Glo cell viability assay, G401; type: cell-based; settings: Homo sapiens, G-401, read-out: anti-proliferative IC50
Experimental: as §2, §3, §4, §5

A204 = experiment: CellTiter-Glo cell viability assay, A204; type: cell-based; settings: Homo sapiens, read-out: anti-proliferative IC50
Experimental: as §2, §3, §4, §5

HDAC10 = HDAC10 (Homo sapiens, UniProt Q969S8); experiment: HDAC isoform inhibition, HDAC10; type: biochemical
Source text: as §1

HDAC7 = HDAC7 (Homo sapiens, UniProt Q8WUI4); experiment: HDAC isoform inhibition, HDAC7; type: biochemical
Sequence of HDAC7 (Q8WUI4 whole entry, canonical isoform): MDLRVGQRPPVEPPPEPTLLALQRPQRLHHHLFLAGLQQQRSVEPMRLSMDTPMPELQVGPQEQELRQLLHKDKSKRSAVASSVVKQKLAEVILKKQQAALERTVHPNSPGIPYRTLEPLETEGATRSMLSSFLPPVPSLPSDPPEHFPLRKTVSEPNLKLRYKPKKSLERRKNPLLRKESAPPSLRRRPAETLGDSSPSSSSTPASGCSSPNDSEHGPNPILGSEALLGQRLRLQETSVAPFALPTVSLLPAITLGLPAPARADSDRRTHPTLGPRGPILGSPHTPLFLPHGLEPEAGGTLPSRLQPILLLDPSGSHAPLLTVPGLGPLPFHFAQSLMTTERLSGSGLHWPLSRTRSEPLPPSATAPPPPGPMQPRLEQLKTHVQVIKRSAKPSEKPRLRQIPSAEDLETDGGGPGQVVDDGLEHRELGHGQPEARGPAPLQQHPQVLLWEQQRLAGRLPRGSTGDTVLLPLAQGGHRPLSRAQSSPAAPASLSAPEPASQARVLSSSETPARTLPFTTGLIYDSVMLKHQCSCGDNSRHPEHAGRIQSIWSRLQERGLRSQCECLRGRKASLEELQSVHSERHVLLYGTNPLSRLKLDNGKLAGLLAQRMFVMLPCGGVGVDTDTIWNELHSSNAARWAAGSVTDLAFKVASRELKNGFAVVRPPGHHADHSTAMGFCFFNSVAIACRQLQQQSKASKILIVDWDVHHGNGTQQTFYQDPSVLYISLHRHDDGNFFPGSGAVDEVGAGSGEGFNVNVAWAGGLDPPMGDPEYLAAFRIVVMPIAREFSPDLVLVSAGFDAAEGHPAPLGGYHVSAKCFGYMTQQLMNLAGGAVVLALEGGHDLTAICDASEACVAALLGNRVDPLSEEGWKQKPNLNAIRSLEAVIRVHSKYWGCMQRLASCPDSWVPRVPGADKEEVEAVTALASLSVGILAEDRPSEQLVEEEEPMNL
Source text: as §1

[1] = tested on: BIN67 human tumor xenografts; experiment: SCCOHT xenograft model (BIN-67); type: in vivo, mice; settings: for mean tumor regression: BIN67 xenografts in mice, two weeks post-treatment initiation
Experimental: In vivo treatment of tumors in an SCCOHT xenograft model (BIN-67) was evaluated. In vivo xenograft tumors from SCCOHT cell line BIN-67 were dosed with (S)-N-hydroxy-2-(2-(4-methoxyphenyl)butanamido)thiazole-5-carboxamide (i.e., GB-3103) for 60 days.

A427 = experiment: CellTiter-Glo cell viability assay, A427; type: cell-based; settings: Homo sapiens, A-427, read-out: anti-proliferative IC50
Experimental: as §2, §3, §4, §5

COV434 = experiment: CellTiter-Glo cell viability assay, COV434; type: cell-based; settings: Homo sapiens
Experimental: as §2, §3, §4, §5

H522 = experiment: CellTiter-Glo cell viability assay, H522; type: cell-based; settings: Homo sapiens, NCI-H522; read-out: anti-proliferative IC50
Experimental: as §2, §3, §4, §5

[2] = tested on: SMARCA2 gene expression in BIN-67 cells; experiment: SMARCA2 gene expression in treated BIN-67 cells; type: cell-based, human; settings: in vitro treatment
[3] = tested on: SCCOHT cell lines (BIN67, COV434, and SCCOHT-1); experiment: Cell proliferation assays, three SCCOHT cell lines; type: cell-based; settings: Homo sapiens; range over BIN67, COV434, SCCOHT-1
Experimental: as §2, §3, §4, §5

[4] = tested on: G401 human malignant rhabdoid tumor xenografts; experiment: Malignant rhabdoid tumor xenograft model (G401); type: in vivo, mice
Experimental: In vivo treatment of tumors in a malignant rhabdoid tumor xenograft model (G401) was evaluated. In vivo xenograft tumors from MRT line G401 were dosed with (S)-N-hydroxy-2-(2-(4-methoxyphenyl)butanamido)thiazole-5-carboxamide (i.e., GB-3103) for 30 days.

BIN67 = experiment: CellTiter-Glo cell viability assay, BIN67; type: cell-based; settings: Homo sapiens; BIN67, 72 hours treatment
Experimental: as §2, §3, §4, §5

HDAC3 = HDAC3 (Homo sapiens, UniProt O15379); experiment: HDAC isoform inhibition, HDAC3; type: biochemical
Source text: as §1

HDAC1 = HDAC1 (Homo sapiens, UniProt Q13547); experiment: HDAC isoform inhibition, HDAC1; type: biochemical
Sequence of HDAC1 (Q13547 whole entry, canonical isoform): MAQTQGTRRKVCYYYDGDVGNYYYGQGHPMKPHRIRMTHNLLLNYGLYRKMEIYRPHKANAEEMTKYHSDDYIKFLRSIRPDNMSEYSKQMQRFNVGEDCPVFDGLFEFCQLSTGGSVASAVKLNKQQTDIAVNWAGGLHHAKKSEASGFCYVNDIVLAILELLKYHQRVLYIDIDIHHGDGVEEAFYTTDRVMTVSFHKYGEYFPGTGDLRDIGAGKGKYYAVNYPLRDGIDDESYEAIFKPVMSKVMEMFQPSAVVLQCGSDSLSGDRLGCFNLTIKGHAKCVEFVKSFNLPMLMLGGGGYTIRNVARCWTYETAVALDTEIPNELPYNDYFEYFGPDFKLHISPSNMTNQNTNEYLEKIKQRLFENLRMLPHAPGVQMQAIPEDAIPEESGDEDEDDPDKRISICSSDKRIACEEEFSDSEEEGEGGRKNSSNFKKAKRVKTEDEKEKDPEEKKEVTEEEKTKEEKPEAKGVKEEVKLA
Source text: as §1

HDAC9 = HDAC9 (Homo sapiens, UniProt Q9UKV0); experiment: HDAC isoform inhibition, HDAC9; type: biochemical
Source text: as §1

BIN67 cells = experiment: RNA-Seq analyses of treated BIN67 cells; type: cell-based, human
CT-26 tumors = experiment: Syngeneic CT-26 mouse colon cancer model; type: in vivo
Source text: Given the importance of MHC Class II expression and response to checkpoint inhibitor therapies, we tested the activity of GB-3103 alone and in combination with anti-mPD-1 and anti-mPD-L1 antibodies in a syngeneic CT-26 mouse colon cancer model. […] However, tumor growth resumed on Day 15 and continued to increase until Day 26 (see FIG. 7).

HDAC5 = HDAC5 (Homo sapiens, UniProt Q9UQL6); experiment: HDAC isoform inhibition, HDAC5; type: biochemical
Source text: as §1

HDAC8 = HDAC8 (Homo sapiens, UniProt Q9BY41); experiment: HDAC isoform inhibition, HDAC8; type: biochemical
Sequence of HDAC8 (Q9BY41 whole entry, canonical isoform): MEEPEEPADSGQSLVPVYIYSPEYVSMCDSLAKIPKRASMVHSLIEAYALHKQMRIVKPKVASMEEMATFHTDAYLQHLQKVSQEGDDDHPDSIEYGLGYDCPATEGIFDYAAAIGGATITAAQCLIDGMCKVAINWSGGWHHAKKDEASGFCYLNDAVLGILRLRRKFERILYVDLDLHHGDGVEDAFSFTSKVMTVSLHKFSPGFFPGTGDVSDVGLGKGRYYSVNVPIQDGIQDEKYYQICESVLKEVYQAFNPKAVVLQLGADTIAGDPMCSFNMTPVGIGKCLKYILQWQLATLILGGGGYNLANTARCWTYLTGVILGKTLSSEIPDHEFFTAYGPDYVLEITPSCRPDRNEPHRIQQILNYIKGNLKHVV
Source text: as §1

HDAC6 = HDAC6 (Homo sapiens, UniProt Q9UBN7); experiment: HDAC isoform inhibition, HDAC6; type: biochemical
Sequence of HDAC6 (Q9UBN7 whole entry, canonical isoform): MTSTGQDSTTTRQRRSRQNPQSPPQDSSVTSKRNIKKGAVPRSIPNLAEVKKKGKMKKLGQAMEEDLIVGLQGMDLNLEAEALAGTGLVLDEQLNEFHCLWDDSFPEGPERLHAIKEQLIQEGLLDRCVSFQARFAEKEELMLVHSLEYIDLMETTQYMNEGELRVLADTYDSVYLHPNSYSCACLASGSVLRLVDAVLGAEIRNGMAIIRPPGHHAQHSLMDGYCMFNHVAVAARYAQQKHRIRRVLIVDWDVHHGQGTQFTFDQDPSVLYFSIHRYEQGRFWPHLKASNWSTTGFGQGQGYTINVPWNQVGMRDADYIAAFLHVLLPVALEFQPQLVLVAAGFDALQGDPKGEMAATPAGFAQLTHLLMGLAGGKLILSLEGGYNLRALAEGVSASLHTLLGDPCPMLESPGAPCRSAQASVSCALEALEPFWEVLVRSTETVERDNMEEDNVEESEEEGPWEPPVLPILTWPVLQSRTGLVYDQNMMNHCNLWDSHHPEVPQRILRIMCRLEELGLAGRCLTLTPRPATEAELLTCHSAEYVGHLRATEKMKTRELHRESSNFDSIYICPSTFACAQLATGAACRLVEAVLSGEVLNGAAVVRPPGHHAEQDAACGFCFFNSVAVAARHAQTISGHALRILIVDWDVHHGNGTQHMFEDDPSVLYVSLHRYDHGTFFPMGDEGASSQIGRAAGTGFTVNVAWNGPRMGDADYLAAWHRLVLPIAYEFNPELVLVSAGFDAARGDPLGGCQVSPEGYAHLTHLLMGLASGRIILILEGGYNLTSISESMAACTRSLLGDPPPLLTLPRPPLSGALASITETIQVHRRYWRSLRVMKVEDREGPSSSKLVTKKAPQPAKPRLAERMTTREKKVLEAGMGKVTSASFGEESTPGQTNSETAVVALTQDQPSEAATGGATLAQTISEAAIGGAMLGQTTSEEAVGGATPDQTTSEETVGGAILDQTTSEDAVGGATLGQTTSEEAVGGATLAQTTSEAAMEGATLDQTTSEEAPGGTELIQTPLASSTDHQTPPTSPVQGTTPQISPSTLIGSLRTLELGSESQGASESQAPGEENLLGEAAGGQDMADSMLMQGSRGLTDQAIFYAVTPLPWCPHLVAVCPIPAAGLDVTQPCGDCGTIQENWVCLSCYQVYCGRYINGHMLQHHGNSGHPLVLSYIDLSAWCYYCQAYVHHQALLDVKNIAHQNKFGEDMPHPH
Source text: as §1

[5] = tested on: Dual SMARCA2 and SMARCA4 deficient cell lines (A204, G401, G402, H522, and A427); experiment: Proliferation assays, dual SMARCA2 and SMARCA4 deficient cell lines; type: cell-based; settings: range over A204, G401, G402, H522, A427
Experimental: as §2, §3, §4, §5

SCCOHT-1 = experiment: CellTiter-Glo cell viability assay, SCCOHT-1; type: cell-based; settings: Homo sapiens; SCCOHT-1, 72 hours treatment
Experimental: as §2, §3, §4, §5

HDAC11 = HDAC11 (Homo sapiens, UniProt Q96DB2); experiment: HDAC isoform inhibition, HDAC11; type: biochemical
Sequence of HDAC11 (Q96DB2 whole entry, canonical isoform): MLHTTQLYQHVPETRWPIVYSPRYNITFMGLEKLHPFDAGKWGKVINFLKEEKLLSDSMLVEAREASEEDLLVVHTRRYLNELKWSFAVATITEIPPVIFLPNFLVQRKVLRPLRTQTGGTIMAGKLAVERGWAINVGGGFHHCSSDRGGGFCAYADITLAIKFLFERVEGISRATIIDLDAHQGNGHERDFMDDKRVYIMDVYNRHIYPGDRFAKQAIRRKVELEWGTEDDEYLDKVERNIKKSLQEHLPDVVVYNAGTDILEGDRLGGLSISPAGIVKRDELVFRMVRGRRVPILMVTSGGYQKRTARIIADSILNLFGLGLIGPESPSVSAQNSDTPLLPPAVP
Source text: as §1

[6] = tested on: SMARCA2 protein expression in BIN-67 cells; experiment: SMARCA2 protein expression in treated BIN-67 cells; type: cell-based, human; settings: in vitro treatment

Sequence of HDAC2 (Q92769 whole entry, canonical isoform): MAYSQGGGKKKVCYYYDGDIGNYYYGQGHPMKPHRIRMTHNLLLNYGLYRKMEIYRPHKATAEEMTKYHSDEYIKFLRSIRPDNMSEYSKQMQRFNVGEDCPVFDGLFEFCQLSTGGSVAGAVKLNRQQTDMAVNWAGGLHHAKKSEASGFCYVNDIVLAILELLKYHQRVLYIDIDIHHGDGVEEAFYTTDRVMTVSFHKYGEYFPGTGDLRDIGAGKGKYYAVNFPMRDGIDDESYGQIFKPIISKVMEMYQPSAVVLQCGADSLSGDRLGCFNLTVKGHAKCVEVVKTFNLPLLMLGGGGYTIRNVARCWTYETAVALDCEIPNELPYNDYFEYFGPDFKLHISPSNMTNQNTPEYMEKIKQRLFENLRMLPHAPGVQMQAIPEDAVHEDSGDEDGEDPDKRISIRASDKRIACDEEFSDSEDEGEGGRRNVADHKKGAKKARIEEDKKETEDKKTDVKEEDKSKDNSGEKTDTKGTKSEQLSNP

Molecule `CC[C@H](C(=O)Nc1ncc(C(=O)NO)s1)c1ccc(OC)cc1` [GB-3103, (S)-N-hydroxy-2-(2-(4-methoxyphenyl)butanamido)thiazol-5-carboxamide] has an IC50 (HDAC2) of 0.0053 µM, an IC50 (HDAC4) of 0.138 µM and an IC50 (G402) of 0.071 µM. For the same molecule, the IC50 (G401) was 0.138 µM, the IC50 (A204) was 0.095 µM and the IC50 (HDAC10) was 0.00203 µM. The IC50 (HDAC7) was 0.0345 µM, the mean tumor regression ([1]; 5 mg/kg QD) was 26% and the mean tumor regression ([1]; 10 mg/kg QD) was 33%. The “tumor volume compared to vehicle control tumors” value ([1]; BIN-67 xenograft, dosed for 60 days) was “statistically significant decreases in volume”, the IC50 (A427) was 0.174 µM and the IC50 (COV434; COV434, read-out: anti-proliferative IC50) was 0.035 µM. The IC50 (COV434; COV434, 72 hours treatment, read-out: IC50) was 0.035 µM, the IC50 (H522) was 0.102 µM and the “induction of SMARCA2 gene (mRNA) expression” value [2] was “concentration and time dependent induction of SMARCA2 gene re-expression; also recorded: potent concentration- and time-dependent induction of SMARCA2 expression at both mRNA and protein levels”. For the same molecule, the IC50 [3] was 0.051 to 0.293 µM, the “tumor volume compared to vehicle control tumors” value ([4]; G401 xenograft, dosed for 30 days) was “statistically significant decreases in volume” and the “tumor growth inhibition (TGI) compared to vehicle control” value ([4]; G401 xenografts in mice, 5 mg/kg, QD, P<0.05) was 70%. The IC50 (BIN67) was 0.051 µM, the IC50 (HDAC3) was 0.000565 µM and the IC50 (HDAC1) was 0.001 µM. The IC50 (HDAC9) was 0.187 µM, the RNA-Seq findings (BIN67 cells) was “affects DNA replication and mRNA stability as well as inducing the expression of MHC Class II proteins” and the “effect on established tumors” value (CT-26 tumors; CT-26 syngeneic model, combined with anti-mPD-1 antibody) was “regression of established CT-26 tumors”. For the same molecule, the “effect on established tumors” value (CT-26 tumors; CT-26 syngeneic model, combined with anti-mPD-L1 antibody) was “regression of established CT-26 tumors”, the TGI (CT-26 tumors; CT-26 syngeneic model, single agent) was 93% and the “day on which tumor growth resumed” value (CT-26 tumors; CT-26 syngeneic model, single agent, growth continued until Day 26) was 15 days. For the same molecule, the tumor memory response (CT-26 tumors; alone and in combination with anti-PD-1/anti-PD-L1 checkpoint modulators, mice) was “creates a tumor memory response preventing re-growth of tumors”, the IC50 (HDAC5) was 0.0735 µM and the IC50 (HDAC8) was 0.133 µM. The IC50 (HDAC6) was 0.000706 µM, the “mode of inhibition of HDAC6” value (HDAC6) was “irreversible” and the IC50 [5] was 0.05 to 0.2 µM. For the same molecule, the IC50 (SCCOHT-1) was 0.293 µM, the IC50 (HDAC11) was 5.78 µM and the “induction of SMARCA2 protein expression” value [6] was “potent concentration- and time-dependent induction of SMARCA2 expression at both mRNA and protein levels”.
